Measurements: patent US9487510B2, “Substituted heterocyclic acetamides as kappa opioid receptor (KOR) agonists” (Dr. Reddy's Laboratories Ltd., priority 2012, dated 2016)

biological target: human KOR receptor (Homo sapiens, UniProt P41145); assay: IP-One HTRF assay, potency of KOR agonists, dose-response in transiently transfected COS-7 cells; type: cell-based
Sequence (P41145 whole entry): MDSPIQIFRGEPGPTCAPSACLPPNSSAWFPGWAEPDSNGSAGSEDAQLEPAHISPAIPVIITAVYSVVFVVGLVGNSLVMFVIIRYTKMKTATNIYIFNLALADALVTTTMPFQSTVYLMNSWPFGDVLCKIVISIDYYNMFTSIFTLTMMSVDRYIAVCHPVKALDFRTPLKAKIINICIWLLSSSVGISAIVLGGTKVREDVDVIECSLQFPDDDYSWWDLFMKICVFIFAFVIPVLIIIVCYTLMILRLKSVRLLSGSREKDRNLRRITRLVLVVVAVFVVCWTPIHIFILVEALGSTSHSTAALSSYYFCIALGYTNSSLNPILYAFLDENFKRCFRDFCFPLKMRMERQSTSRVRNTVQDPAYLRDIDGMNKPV

Row | SMILES | EC50
1 | CN(C(=O)Cc1ccc2c(c1)NC(=O)CS2(=O)=O)[C@H](CN1CC[C@H](O)C1)c1cccc(OC(F)F)c1 [Example 11, N-((S)-1-(3-(difluoromethoxy)phenyl)-2-((S)-3-hydroxypyrrolidin-1-yl)ethyl)-2-(1,1-dioxido-3-oxo-3,4-dihydro-2H-benzo[b][1,4]thiazin-6-yl)-N-methylacetamide] | ≥ 1000 nM
2 | CN(C(=O)Cc1ccc2c(c1)NC(=O)C2(F)F)[C@H](CN1CC[C@H](O)C1)c1ccccc1 [Example 12, 2-(3,3-difluoro-2-oxoindolin-6-yl)-N-((S)-2-((S)-3-hydroxypyrrolidin-1-yl)-1-phenylethyl)-N-methylacetamide] | ≤ 50 nM
3 | O=C(Cc1ccc2c(c1)NC(=O)C2(F)F)N[C@H](CN1CC[C@H](O)C1)c1ccccc1 [Example 13, 2-(3,3-difluoro-2-oxoindolin-6-yl)-N-((S)-2-((S)-3-hydroxypyrrolidin-1-yl)-1-phenylethyl)acetamide] | ≥ 1000 nM
4 | CCN(C(=O)Cc1ccc2c(c1)NC(=O)CS2(=O)=O)[C@H](CN1CC[C@H](O)C1)c1cccc(OC(F)(F)F)c1 [Example 14, 2-(1,1-dioxido-3-oxo-3,4-dihydro-2H-benzo[b][1,4]thiazin-6-yl)-N-ethyl-N-((S)-2-((S)-3-hydroxypyrrolidin-1-yl)-1-(3-(trifluoromethoxy)phenyl)ethyl)acetamide] | ≥ 1000 nM
5 | CO[C@H]1CCN(C[C@H](c2cccc(OC(F)(F)F)c2)N(C)C(=O)Cc2ccc3c(c2)NC(=O)CS3(=O)=O)C1 [Example 15, 2-(1,1-dioxido-3-oxo-3,4-dihydro-2H-benzo[b][1,4]thiazin-6-yl)-N-((S)-2-((S)-3-methoxypyrrolidin-1-yl)-1-(3-(trifluoromethoxy)phenyl)ethyl)-N-methylacetamide] | ≤ 50 nM
6 | O=C1CS(=O)(=O)c2ccc(CC(=O)N(CC(F)(F)F)[C@H](CN3CC[C@H](O)C3)c3cccc(OC(F)(F)F)c3)cc2N1 [Example 16, 2-(1,1-dioxido-3-oxo-3,4-dihydro-2H-benzo[b][1,4]thiazin-6-yl)-N-((S)-2-((S)-3-hydroxypyrrolidin-1-yl)-1-(3-(trifluoromethoxy)phenyl)ethyl)-N-(2,2,2-trifluoroethyl)acetamide 2,2,2-trifluoroacetate] | ≤ 50 nM
7 | CN(C(=O)Cc1ccc2c(c1)NC(=O)CS2(=O)=O)C(CN1CC[C@H](O)C1)C1CCOCC1 (stereo partly drawn) [Example 17, 2-(1,1-dioxido-3-oxo-3,4-dihydro-2H-benzo[b][1,4]thiazin-6-yl)-N-(2-((S)-3-hydroxypyrrolidin-1-yl)-1-(tetrahydro-2H-pyran-4-yl)ethyl)-N-methylacetamide-2,2,2-trifluoroacetate] | 101 to 1000 nM
8 | CN(C(=O)Cc1ccc2sc(=O)[nH]c2c1)[C@H](CN1CC[C@H](O)C1)c1cccc(C(=O)O)c1 [Example 18, 3-((S)-2-((S)-3-hydroxypyrrolidin-1-yl)-1-(N-methyl-2-(2-oxo-2,3-dihydrobenzo[d]thiazol-5-yl)acetamido)ethyl)benzoic acid] | ≤ 50 nM
9 | CN(C(=O)Cc1ccc2sc(=O)[nH]c2c1)[C@H](CN1CC[C@H](O)C1)c1cccc(C(N)=O)c1 [Example 19, 3-((S)-2-((S)-3-hydroxypyrrolidin-1-yl)-1-(N-methyl-2-(2-oxo-2,3-dihydrobenzo [d]thiazol-5-yl)acetamido)ethyl)benzamide] | ≤ 50 nM
10 | CN(C(=O)Cc1ccc2c(c1)N(C)S(=O)(=O)C2)[C@H](CN1CC[C@H](O)C1)c1cccc(-c2nn[nH]n2)c1 [Example 21, N-((S)-1-(3-(1H-tetrazol-5-yl)phenyl)-2-((S)-3-hydroxypyrrolidin-1-yl)ethyl)-N-methyl-2-(1-methyl-2,2-dioxido-1,3-dihydrobenzo[c]isothiazol-6-yl)acetamide] | 51 to 100 nM
11 | CN(C(=O)Cc1ccc2c(c1)NC(=O)CS2(=O)=O)[C@H](CN1CC[C@H](O)C1)c1cccc(OCC(=O)O)c1 [Example 22, 2-(3-((S)-1-(2-(1,1-dioxido-3-oxo-3,4-dihydro-2H-benzo[b][1,4]thiazin-6-yl)-N-methylacetamido)-2-((S)-3-hydroxypyrrolidin-1-yl)ethyl)phenoxy)acetic acid] | ≤ 50 nM
12 | CN(C(=O)Cc1ccc2c(c1)NC(=O)C2)[C@H](CN1CC[C@H](O)C1)c1cccc(C(=O)O)c1 [Example 23, 3-((S)-2-((S)-3-hydroxypyrrolidin-1-yl)-1-(N-methyl-2-(2-oxoindolin-6-yl)acetamido)ethyl) benzoic acid] | ≤ 50 nM
13 | CN(C(=O)Cc1ccc2c(c1)NC(=O)C2)[C@H](CN1CC[C@H](O)C1)c1cccc(C(N)=O)c1 [Example 24, 3-((S)-2-((S)-3-hydroxypyrrolidin-1-yl)-1-(N-methyl-2-(2-oxoindolin-6-yl)acetamido)ethyl) benzamide] | ≤ 50 nM
14 | CN(C(=O)Cc1ccc2c(c1)NC(=O)C2)[C@H](CN1CC[C@H](F)C1)c1cccc(C#N)c1 [Example 25, N-((S)-1-(3-cyanophenyl)-2-((S)-3-fluoropyrrolidin-1-yl)ethyl)-N-methyl-2-(2-oxoindolin-6-yl)acetamide] | ≤ 50 nM
15 | CN(C(=O)Cc1ccc2c(c1)NC(=O)C2)[C@H](CN1CC[C@H](O)C1)c1cccc(OCC(N)=O)c1 [Example 26, N-((S)-1-(3-(2-amino-2-oxoethoxy)phenyl)-2-((S)-3-hydroxypyrrolidin-1-yl)ethyl)-N-methyl-2-(2-oxoindolin-6-yl)acetamide] | ≤ 50 nM
16 | CN(C(=O)Cc1ccc2c(c1)NC(=O)C2)[C@H](CN1CC[C@H](O)C1)c1cccc(OCC(=O)NS(C)(=O)=O)c1 [Example 27, N-((S)-2-((S)-3-hydroxypyrrolidin-1-yl)-1-(3-(2-(methylsulfonamido)-2-oxoethoxy)phenyl)ethyl)-N-methyl-2-(2-oxoindolin-6-yl)acetamide] | 51 to 100 nM
17 | CN(C(=O)Cc1ccc2c(c1)NC(=O)C2)[C@H](CN1CC[C@H](F)C1)c1cccc(C(=O)O)c1 [Example 28, 3-((S)-2-((S)-3-fluoropyrrolidin-1-yl)-1-(N-methyl-2-(2-oxoindolin-6-yl)acetamido)ethyl) benzoic acid] | 101 to 1000 nM
18 | CN(C(=O)Cc1ccc2c(c1)NC(=O)C2)[C@H](CN1CC[C@H](F)C1)c1cccc(OCC(=O)O)c1 [Example 29, 2-(3-((S)-2-((S)-3-fluoropyrrolidin-1-yl)-1-(N-methyl-2-(2-oxoindolin-6-yl)acetamido)ethyl)phenoxy)acetic acid] | ≤ 50 nM
19 | CN(C(=O)Cc1ccc2c(c1)NC(=O)C2)[C@H](CN1CC[C@H](F)C1)c1cccc(OCC(N)=O)c1 [Example 30, N-((S)-1-(3-(2-amino-2-oxoethoxy)phenyl)-2-((S)-3-fluoropyrrolidin-1-yl)ethyl)-N-methyl-2-(2-oxoindolin-6-yl)acetamide] | ≥ 1000 nM
20 | CN(C(=O)Cc1ccc2ncc(=O)[nH]c2c1)[C@H](CN1CC[C@H](O)C1)c1cccc(C(=O)O)c1 [Example 31, 3-((S)-2-((S)-3-hydroxypyrrolidin-1-yl)-1-(N-methyl-2-(3-oxo-3,4-dihydroquinoxalin-6-yl)acetamido)ethyl)benzoic acid] | ≤ 50 nM
21 | CN(C(=O)Cc1ccc2c(c1)NC(=O)CS2)[C@H](CN1CC[C@H](O)C1)c1cccc(C(N)=O)c1 [Example 32, 3-((S)-2-((S)-3-hydroxypyrrolidin-1-yl)-1-(N-methyl-2-(3-oxo-3,4-dihydro-2H-benzo[b][1,4]thiazin-6-yl)acetamido)ethyl)benzamide] | ≤ 50 nM
22 | CN(C(=O)Cc1ccc2ncc(=O)[nH]c2c1)[C@H](CN1CC[C@H](O)C1)c1cccc(-c2noc(C(F)(F)F)n2)c1 [Example 34, N-((S)-2-((S)-3-hydroxypyrrolidin-1-yl)-1-(3-(5-(trifluoromethyl)-1,2,4-oxadiazol-3-yl)phenyl)ethyl)-N-methyl-2-(3-oxo-3,4-dihydroquinoxalin-6-yl)acetamide] | ≤ 50 nM
23 | Cc1nc(-c2cccc([C@@H](CN3CC[C@H](O)C3)N(C)C(=O)Cc3ccc4c(c3)NC(=O)C4)c2)no1 [Example 35, N-((S)-2-((S)-3-hydroxypyrrolidin-1-yl)-1-(3-(5-methyl-1,2,4-oxadiazol-3-yl)phenyl)ethyl)-N-methyl-2-(2-oxoindolin-6-yl)acetamide] | ≤ 50 nM
24 | CN(C(=O)Cc1ccc2c(c1)NC(=O)C2)[C@H](CN1CC[C@H](O)C1)c1cccc(-c2nccs2)c1 [Example 36, N-((S)-2-((S)-3-hydroxypyrrolidin-1-yl)-1-(3-(thiazol-2-yl)phenyl)ethyl)-N-methyl-2-(2-oxoindolin-6-yl)acetamide] | 51 to 100 nM
25 | CCC#Cc1cccc([C@@H](CN2CC[C@H](O)C2)N(C)C(=O)Cc2ccc3c(c2)NS(=O)(=O)C3)c1 [Example 37, N-((S)-1-(3-(but-1-yn-1-yl)phenyl)-2-((S)-3-hydroxypyrrolidin-1-yl)ethyl)-2-(2,2-dioxido-1,3-dihydrobenzo[c]isothiazol-6-yl)-N-methylacetamide] | ≤ 50 nM
26 | CN(C(=O)Cc1ccc2c(c1)NC(=O)C2)[C@H](CN1CC[C@H](O)C1)c1cccc(C(=O)NCC(F)(F)F)c1 [Example 38, 3-((S)-2-((S)-3-hydroxypyrrolidin-1-yl)-1-(N-methyl-2-(2-oxoindolin-6-yl)acetamido)ethyl)-N-(2,2,2-trifluoroethyl)benzamide] | ≤ 50 nM
27 | CCN(CC)C(=O)c1cccc([C@@H](CN2CC[C@H](O)C2)N(C)C(=O)Cc2ccc3c(c2)NC(=O)C3)c1 [Example 39, N,N-diethyl-3-((S)-2-((S)-3-hydroxypyrrolidin-1-yl)-1-(N-methyl-2-(2-oxoindolin-6-yl)acetamido)ethyl)benzamide] | ≤ 50 nM
28 | CN(C)C(=O)c1cccc([C@@H](CN2CC[C@H](O)C2)N(C)C(=O)Cc2ccc3sc(=O)[nH]c3c2)c1 [Example 40, 3-((S)-2-((S)-3-hydroxypyrrolidin-1-yl)-1-(N-methyl-2-(2-oxo-2,3-dihydrobenzo[d]thiazol-5-yl)acetamido)ethyl)-N,N-dimethylbenzamide-2,2,2-trifluoroacetate] | ≤ 50 nM
29 | CCN(CC)C(=O)COc1cccc([C@@H](CN2CC[C@H](O)C2)N(C)C(=O)Cc2ccc3c(c2)NC(=O)C3)c1 [Example 41, N-((S)-1-(3-(2-(diethylamino)-2-oxoethoxy)phenyl)-2-((S)-3-hydroxypyrrolidin-1-yl)ethyl)-N-methyl-2-(2-oxoindolin-6-yl)acetamide] | ≤ 50 nM
